This passage reports Activity and EC50 results from ChEMBL document CHEMBL1148980, “Scabrolides E-G, three new norditerpenoids from the soft coral Sinularia scabra” (2004).

Values after ≈ are worked out from the molar mass of the structure shown. Active and inactive are the calls of the source. The rule behind the calls is not given here.

Holding throughout (assay type): functional
The test system of one assay is KB. Description: Cytotoxicity against human KB cells by MTT assay. For orientation: Formazan colour is commonly taken as a measure of viable cells.
The subject of a further assay is HEPA 59T/VGH. Description: (§1) Cytotoxicity against human HEPA 59T/VGH cells by MTT assay.
A short description of assay [1]: as §1. To be noted: read-out: ED50 (the source's name).

For the compound `C=C(C)[C@@H]1CC(=O)C[C@H](O)[C@@]2(O)[C@H]1C=C1C(=O)O[C@@H]3C[C@](C)(O)[C@H]2[C@H]13`, the result with KB and in the assay on HEPA 59T/VGH was inactive.

Turning to `C=C(C)[C@H]1C/C=C2\C(=O)O[C@H](C[C@]3(C)CC(=O)[C@H](CC(=O)C1)O3)[C@H]2O` [SCABROLIDE E], the EC50 in the assay on KB (read-out: ED50 (the source's name)) is 0.7 µg/mL (≈ 2.01 µM); in assay [1] it was 0.5 µg/mL (≈ 1.44 µM).
